Experimental data reported in PubChem BioAssay AID192 (DTP/NCI, 2004).
Where “and” joins values, the source holds several entries; their conditions need not be identical. Equal values may be shown once. Toxic doses and inconclusive results are not listed. Square brackets hold non-standard residues; d marks the D form. Peptide text beside a SMILES is read from it. ξ: configuration not given here. ξV = CC(C)C(N)C(=O)O

System: BDF1 mice, B16 melanoma ip, median survival T/C
Assay: NCI In Vivo Anticancer Drug Screen. Data for tumor model B16 Melanoma (intraperitoneal) in B6D2F1 (BDF1) mice
Settings: endpoint: median survival time, higher = longer survival
Outline: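 Tumor-bearing mice received test compound or vehicle. Survival or tumor size was then measured in both groups. The treated-group figure was divided by the control-group figure.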

[1] = dose: 100.0 mg/kg/injection, schedule: Q01DX009 (ip), vehicle: Klucel (hydroxypropylcellulose) (HPC)
[2] = dose: 1.56 mg/kg/injection, schedule: Q01DX009 (ip), vehicle: saline
[3] = dose: 3.12 mg/kg/injection, schedule: Q01DX009 (ip), vehicle: saline
[4] = dose: 6.25 mg/kg/injection, schedule: Q01DX009 (ip), vehicle: saline
[5] = dose: 50.0 mg/kg/injection, schedule: Q01DX009 (ip), vehicle: Klucel (hydroxypropylcellulose) (HPC)
[6] = dose: 50.0 mg/kg/injection, schedule: Q01DX009 (ip), vehicle: saline with Tween-80
[7] = dose: 100.0 mg/kg/injection, schedule: Q01DX009 (ip), vehicle: saline with Tween-80
[8] = dose: 200.0 mg/kg/injection, schedule: Q01DX009 (ip), vehicle: saline with Tween-80
[9] = dose: 25.0 mg/kg/injection, schedule: Q01DX009 (ip), vehicle: saline with Tween-80
[10] = dose: 100.0 mg/kg/injection, schedule: Q04DX003 (ip), vehicle: saline with Tween-80
[11] = dose: 200.0 mg/kg/injection, schedule: Q04DX003 (ip), vehicle: saline with Tween-80
[12] = dose: 400.0 mg/kg/injection, schedule: Q04DX003 (ip), vehicle: saline with Tween-80

Structure (SMILES): CCCCNC(C)(C)COC(=O)/C=C/c1ccc(OCCCC)cc1
- T/C (dose: 12.5 mg/kg/injection, schedule: Q01DX009 (ip), vehicle: saline sonified): 97 % of control
- T/C (dose: 25.0 mg/kg/injection, schedule: Q01DX009 (ip), vehicle: saline sonified): 97 % of control
- T/C (dose: 50.0 mg/kg/injection, schedule: Q01DX009 (ip), vehicle: saline sonified): 104 % of control
- T/C (dose: 100.0 mg/kg/injection, schedule: Q01DX009 (ip), vehicle: saline sonified): 93 % of control

Structure (SMILES): Cc1ccc(N=Nc2c(O)ccc3n[nH]nc23)cc1
- T/C [1]: 96 % of control

Structure (SMILES): C=CCN1/C(=C/C=C\c2sc3ccccc3[n+]2CC=C)Sc2ccccc21
- T/C (dose: 0.06 mg/kg/injection, schedule: Q01DX009 (ip), vehicle: saline with Tween-80): 100 % of control
- T/C (dose: 0.13 mg/kg/injection, schedule: Q01DX009 (ip), vehicle: saline with Tween-80): 97 % of control
- T/C (dose: 0.25 mg/kg/injection, schedule: Q01DX009 (ip), vehicle: saline with Tween-80): 97 % of control
- T/C (dose: 0.5 mg/kg/injection, schedule: Q01DX009 (ip), vehicle: saline with Tween-80): 95 % of control

Structure (SMILES): CC(C)C(NC(=O)CN)C(=O)O (stereo not given) (H-Gly-[ξV]-OH)
- T/C (dose: 100.0 mg/kg/injection, schedule: Q01DX009 (ip), vehicle: saline): 102 % of control
- T/C (dose: 100.0 mg/kg/injection, schedule: Q04DX003 (ip), vehicle: saline): 102 % of control
- T/C (dose: 200.0 mg/kg/injection, schedule: Q01DX009 (ip), vehicle: saline): 100 % of control
- T/C (dose: 200.0 mg/kg/injection, schedule: Q04DX003 (ip), vehicle: saline): 97 % of control
- T/C (dose: 400.0 mg/kg/injection, schedule: Q01DX009 (ip), vehicle: saline): 90 % of control
- T/C (dose: 400.0 mg/kg/injection, schedule: Q04DX003 (ip), vehicle: saline): 95 % of control

Structure (SMILES): CCC1(CC)COC(=O)NC1=O
- T/C [2]: 105 % of control
- T/C [3]: 97 % of control
- T/C [4]: 105 % of control
- T/C (dose: 12.5 mg/kg/injection, schedule: Q01DX009 (ip), vehicle: saline): 107 % of control

Structure (SMILES): Cc1ccc(S(=O)(=O)N=N/C=C2/C=CC=CN2O)cc1
- T/C (dose: 25.0 mg/kg/injection, schedule: Q01DX009 (ip), vehicle: Klucel (hydroxypropylcellulose) (HPC)): 108 % of control
- T/C [5]: 114 % of control
- T/C [1]: 115 % of control

Structure (SMILES): CCC(=O)/C=C/C1=C(C)CCCC1(C)C
- T/C [6]: 104 % of control
- T/C [7]: 103 % of control
- T/C [8]: 92 % of control

Structure (SMILES): Nc1nc(=S)c2[nH]c(N=Nc3ccc(S(=O)(=O)Nc4ncccn4)cc3)nc2[nH]1
- T/C (dose: 1.56 mg/kg/injection, schedule: Q01DX009 (ip), vehicle: Klucel (hydroxypropylcellulose) (HPC)): 95 % of control
- T/C (dose: 3.12 mg/kg/injection, schedule: Q01DX009 (ip), vehicle: Klucel (hydroxypropylcellulose) (HPC)): 102 % of control
- T/C (dose: 6.25 mg/kg/injection, schedule: Q01DX009 (ip), vehicle: Klucel (hydroxypropylcellulose) (HPC)): 113 % of control
- T/C (dose: 12.5 mg/kg/injection, schedule: Q01DX009 (ip), vehicle: Klucel (hydroxypropylcellulose) (HPC)): 102 % of control

Structure (SMILES): CC(O)c1cccnc1 (stereo not given)
- T/C (dose: 10.0 mg/kg/injection, schedule: Q01DX009 (ip), vehicle: saline): 122 % of control
- T/C (dose: 20.0 mg/kg/injection, schedule: Q01DX009 (ip), vehicle: saline): 116 % of control
- T/C (dose: 40.0 mg/kg/injection, schedule: Q01DX009 (ip), vehicle: saline): 122 % of control

Structure (SMILES): O=C(O)CC(NC(=O)OCc1ccccc1)C(=O)O (stereo not given)
- T/C [2]: 98 % of control
- T/C [3]: 104 % of control
- T/C [4]: 92 % of control

Structure (SMILES): CS(=O)(=O)OCC(=O)NCC(O)CNC(=O)COS(C)(=O)=O
- T/C [6]: 109 % of control
- T/C [7]: 104 % of control
- T/C [8]: 115 % of control

Structure (SMILES): N#CCCN(CCC#N)/N=N\c1nc[nH]c1C(N)=O
- T/C [6]: 89 % of control
- T/C [7]: 100 % of control
- T/C [8]: 100 % of control
- T/C (dose: 400.0 mg/kg/injection, schedule: Q01DX009 (ip), vehicle: saline with Tween-80): 100 % of control

Structure (SMILES): COc1cccc2c1C(=O)c1c(O)c3c(c(O)c1C2=O)C[C@@](O)(C(=O)COC(=O)c1cccnc1)C[C@@H]3OC1CC(N)C(O)C(C)O1 (stereo not given in full)
- T/C (dose: 0.19 mg/kg/injection, schedule: Q01DX001 (ip), vehicle: water): 92 % of control
- T/C (dose: 0.38 mg/kg/injection, schedule: Q01DX001 (ip), vehicle: water): 101 % of control
- T/C (dose: 0.75 mg/kg/injection, schedule: Q01DX001 (ip), vehicle: water): 108 % of control
- T/C (dose: 3.0 mg/kg/injection, schedule: Q01DX001 (ip), vehicle: water): 113 % of control and 239 % of control and 249 % of control
- T/C (dose: 6.0 mg/kg/injection, schedule: Q01DX001 (ip), vehicle: water): 103 % of control and 250 % of control and 255 % of control
- T/C (dose: 12.0 mg/kg/injection, schedule: Q01DX001 (ip), vehicle: water): 251 % of control and 323 % of control
- T/C (dose: 24.0 mg/kg/injection, schedule: Q01DX001 (ip), vehicle: water): 325 % of control

Structure (SMILES): C[C@@H]1O[C@@H](O[C@H]2CC[C@]3(C=O)[C@H]4CC[C@]5(C)[C@@H](c6ccc(=O)oc6)CC[C@]5(O)[C@@H]4CC[C@]3(O)C2)[C@H](O)[C@H](O)[C@H]1O[C@@H]1O[C@H](CO)[C@@H](O)[C@H](O)[C@H]1O
- T/C (dose: 0.63 mg/kg/injection, schedule: Q01DX009 (ip), vehicle: saline): 102 % of control
- T/C (dose: 1.25 mg/kg/injection, schedule: Q01DX009 (ip), vehicle: saline): 92 % of control
- T/C (dose: 2.5 mg/kg/injection, schedule: Q01DX009 (ip), vehicle: saline): 90 % of control

Structure (SMILES): CC1=CC(=O)C=CC1=Nc1ccc(N(C)C)cc1
- T/C [9]: 91 % of control
- T/C [6]: 90 % of control

Structure (SMILES): CCN(CC)CCCC(C)NS(=O)(=O)c1cccc2c(N(C)C)cccc12 (stereo not given)
- T/C (dose: 6.25 mg/kg/injection, schedule: Q01DX009 (ip), vehicle: water): 104 % of control
- T/C (dose: 12.5 mg/kg/injection, schedule: Q01DX009 (ip), vehicle: water): 104 % of control
- T/C (dose: 25.0 mg/kg/injection, schedule: Q01DX009 (ip), vehicle: water): 97 % of control
- T/C (dose: 50.0 mg/kg/injection, schedule: Q01DX009 (ip), vehicle: water): 98 % of control
- T/C (dose: 100.0 mg/kg/injection, schedule: Q01DX009 (ip), vehicle: water): 92 % of control

Structure (SMILES): Cc1cc(C)c(C(=O)O)c(C)c1Br
- T/C [10]: 102 % of control
- T/C [11]: 97 % of control
- T/C [12]: 100 % of control

Structure (SMILES): COc1cccc(C)c1[N+](=O)[O-]
- T/C (dose: 75.0 mg/kg/injection, schedule: Q04DX003 (ip), vehicle: Klucel (hydroxypropylcellulose) (HPC)): 92 % of control
- T/C (dose: 150.0 mg/kg/injection, schedule: Q04DX003 (ip), vehicle: Klucel (hydroxypropylcellulose) (HPC)): 109 % of control
- T/C (dose: 300.0 mg/kg/injection, schedule: Q04DX003 (ip), vehicle: Klucel (hydroxypropylcellulose) (HPC)): 90 % of control

Structure (SMILES): COc1cc([C@@H]2c3cc4c(c(O)c3C[C@H]3COC(=O)[C@@H]32)OCO4)cc(OC)c1OC
- T/C (dose: 0.12 mg/kg/injection, schedule: Q01DX009 (ip), vehicle: suspension in saline): 100 % of control
- T/C (dose: 0.25 mg/kg/injection, schedule: Q01DX009 (ip), vehicle: suspension in saline): 102 % of control
- T/C (dose: 0.5 mg/kg/injection, schedule: Q01DX009 (ip), vehicle: saline): 109 % of control
- T/C (dose: 0.5 mg/kg/injection, schedule: Q01DX009 (ip), vehicle: suspension in saline): 120 % of control
- T/C (dose: 1.0 mg/kg/injection, schedule: Q01DX009 (ip), vehicle: saline): 114 % of control
- T/C (dose: 1.0 mg/kg/injection, schedule: Q01DX009 (ip), vehicle: suspension in saline): 121 % of control

Structure (SMILES): C=C(NC(=O)C(=C)NC(=O)c1csc(C2=NC3c4csc(n4)C4NC(=O)c5csc(n5)C(C(C)(O)C(C)O)NC(=O)C5CSC(=N5)/C(=C/C)NC(=O)C(C(C)O)NC(=O)c5csc(n5)C3(CC2)NC(=O)C(C)NC(=O)C(=C)NC(=O)C(C)NC(=O)C(C(C)CC)NC2C=Cc3c(C(C)O)cc(nc3C2O)C(=O)OC4C)n1)C(N)=O (stereo not given)
- T/C [5]: 106 % of control
- T/C [1]: 109 % of control
- T/C (dose: 200.0 mg/kg/injection, schedule: Q01DX009 (ip), vehicle: Klucel (hydroxypropylcellulose) (HPC)): 112 % of control

Structure (SMILES): C=CCn1c(=S)[nH]c2ccccc2c1=O
- T/C [6]: 96 % of control
- T/C [7]: 96 % of control
- T/C [10]: 105 % of control
- T/C [8]: 93 % of control
- T/C [11]: 94 % of control
- T/C [12]: 92 % of control

Structure (SMILES): CC(C)(C)OC(=O)NC(Cc1ccc(OCc2ccccc2)cc1)C(=O)O (stereo not given)
- T/C (dose: 6.25 mg/kg/injection, schedule: Q01DX009 (ip), vehicle: saline with Tween-80): 104 % of control
- T/C (dose: 12.5 mg/kg/injection, schedule: Q01DX009 (ip), vehicle: saline with Tween-80): 97 % of control
- T/C [9]: 96 % of control
- T/C [6]: 95 % of control
- T/C [7]: 87 % of control
